These results are taken from patent US20250057994A1, “LABELED COMPOUNDS AND CALCIUM SENSING RECEPTOR LIGANDS FOR IMAGING AND USES THEREOF” (The University of North Carolina at Chapel Hill, priority 2021, published 2025).

The nature of data set [1]: In vitro stability of 18F-cinacalcet (incubation, HPLC purity). The data set is classed as physicochemical. As to the method:
(§1) In a non-human primate imaging experiment, the blood samples were drawn from vein at 1 and 3 h post injection.
(§2) Stability of [^18F]F-ZW-cinacalcet. The photoredox labeling method allows access to a new category of PET agent bearing a SP^2-F bond. [^18F]F-ZW-cinacalcet has improved stability compared to the CF3 labeling method. The formulated [^18F]F-ZW-cinacalcet was first incubated in PBS (Phosphate buffered saline containing 8% EtOH), and aliquots were taken for analysis at different time points. […] Subsequently, the in vivo stability of [^18F]F-ZW-cinacalcet was tested in a non-human primate. After injection, a blood sample was collected at 1 and 3 h time points. […] Because the imaging was finished within the first hour, the metabolites were not determined in this study

The target of data set [2] is T1, CSR (Rattus norvegicus, UniProt P48442).
T1 construct: Normal rats were used as an animal model for initial CSR agent imaging; from tissue; host or cells: rat parathyroid (also lung and other tissues), in vivo and excised sections
T1 sequence (P48442 20-1079): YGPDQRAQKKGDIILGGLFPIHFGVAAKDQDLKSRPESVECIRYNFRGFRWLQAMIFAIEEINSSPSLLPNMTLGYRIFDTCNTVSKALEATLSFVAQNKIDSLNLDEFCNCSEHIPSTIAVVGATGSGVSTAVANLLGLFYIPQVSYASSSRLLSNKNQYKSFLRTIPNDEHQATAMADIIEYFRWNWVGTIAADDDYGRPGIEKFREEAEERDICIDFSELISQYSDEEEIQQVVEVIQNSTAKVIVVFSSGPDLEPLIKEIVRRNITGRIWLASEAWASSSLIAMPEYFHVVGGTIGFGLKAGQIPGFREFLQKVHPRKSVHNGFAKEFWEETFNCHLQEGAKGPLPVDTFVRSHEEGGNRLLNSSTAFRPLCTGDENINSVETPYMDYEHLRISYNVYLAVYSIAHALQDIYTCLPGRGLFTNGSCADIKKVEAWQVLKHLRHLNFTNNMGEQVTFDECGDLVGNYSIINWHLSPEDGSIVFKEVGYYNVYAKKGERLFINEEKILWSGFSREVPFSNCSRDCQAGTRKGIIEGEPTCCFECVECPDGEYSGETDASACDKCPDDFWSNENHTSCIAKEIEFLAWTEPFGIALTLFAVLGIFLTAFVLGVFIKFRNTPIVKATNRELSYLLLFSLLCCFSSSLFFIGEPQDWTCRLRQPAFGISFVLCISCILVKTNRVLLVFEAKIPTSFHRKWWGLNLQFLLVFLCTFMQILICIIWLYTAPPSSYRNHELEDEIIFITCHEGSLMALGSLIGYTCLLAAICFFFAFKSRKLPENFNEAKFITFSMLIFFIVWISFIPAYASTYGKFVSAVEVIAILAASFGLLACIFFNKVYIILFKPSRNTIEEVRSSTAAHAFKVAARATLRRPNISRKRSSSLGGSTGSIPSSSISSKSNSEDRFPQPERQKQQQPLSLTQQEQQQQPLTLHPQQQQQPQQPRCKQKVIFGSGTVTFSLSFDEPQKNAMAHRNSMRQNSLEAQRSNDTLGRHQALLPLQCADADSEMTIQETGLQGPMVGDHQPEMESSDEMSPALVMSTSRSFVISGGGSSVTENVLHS
The data set is described as follows: Autoradiography with matched CSR IHC staining of excised rat tissue. The note with it: rats. Format: in vivo. The protocol: After the imaging of each animal, the parathyroid glands were carefully dissected out and the uptake in parathyroid gland was measured, then subsequently evaluated pathologically to confirm the histology. Autoradiography was performed to study its distribution in gland area. Optical imaging guidance during the surgical procedures was also performed using the developed CSR PET-fluorescence probes. During excision, the surgeon also graded the visibility of the lesions with and without the use of fluorescence. Other critical organs, including the thyroid gland, nearby tissues, and major organs were also dissected out to evaluate the relative uptake within these organs. The localization of radioactivity in the gland tissue was also confirmed by autoradiography coupled with pathology staining of neighboring slides.
^18F-cinacalcet could detect parathyroid gland in rats by targeting CSR. […] In order to confirm the observed signal did come from the very small parathyroid gland instead of thyroid or other tissue, the rats were sacrificed and the localization of radioactivity in the gland tissue was evaluated by autoradiography coupled with pathology staining of neighboring slides.
Autoradiography and pathology. […] Quantitative analysis of autoradiography and IHC staining was expressed as a mean integrated density (Mean IntDen). […]

Data set [3] in a line: In vivo stability in non-human primate blood samples. Conditions: for In vivo stability in blood: non-human primate. As to the method: as §1, §2
The nature of data set [4]: Octanol water partition coefficient (Log P). The data set is classed as physicochemical. The note with it: 1-octanol/water; 1-octanol and water system, average value. The text has this: Determination of Octanol water Partition Coefficient (Log P).
The target of data set [5] is T1, CSR. The data set is described as follows: Small animal PET/CT imaging of parathyroid in rats (static and dynamic). The data set is classed as in vivo. As to the method:
Normal rats were used as an animal model for initial CSR agent imaging. Surgical dissection of the mouse parathyroid gland is too technically difficult, in contrast to the rat which has approximately 10 times the body mass of a mouse. Analyses were performed by individuals with extensive experience on parathyroid identification for pathology. autoradiography, and microscope study. In brief, animals were anesthetized with isoflurane. For PET probes, dynamic PET imaging was performed after the administration of 1 to 2 mCi of tracer, and animals were imaged with 2 h dynamic scan. A CT scan was also obtained for anatomic registration and attenuation correction. Images were reconstructed to create representative dynamic images for the study (10 min epochs). These images were qualitatively graded to assess the visibility of the parathyroid gland against background tissues. PET kinetic modeling was also performed to evaluate the relative kinetics of uptake of the parathyroid gland compared to the thyroid and other tissues.
^18F-cinacalcet could detect parathyroid gland in rats by targeting CSR. Parathyroid gland are very small (3-5 mm in human) and generally below the detection limit of most imaging methods. The novel CSR PET agent ^18F-cinacalcet was injected in rat and small animal PET imaging was performed. […] In order to confirm the observed signal did come from the very small parathyroid gland instead of thyroid or other tissue, the rats were sacrificed and the localization of radioactivity in the gland tissue was evaluated by autoradiography coupled with pathology staining of neighboring slides.
Small animal-PET CT imaging of parathyroid in rodents. Because the parathyroid is rather small, rats were used instead of mice to evaluate the agent. Static PET scans were acquired in rats at 0.5 h, 1 h and 2 h post injection of [^18F]F-ZW-cinacalcet. Representative coronal PET images are shown in FIG. 15 panel A. Parathyroid could be visualized on the image at the early time point of 0.5 h with a radiotracer uptake of 0.28±0.16% ID/g and parathyroid/muscle ratio of 4.9±0.93.
Dynamic PET images of [^18F]F-ZW-cinacalcet in rats were acquired for 60 minutes. [^18F]F-ZW-cinacalcet accumulated into parathyroid at the earliest timepoints and peaked at about 7 min post injection (0.33±0.05% ID/g), followed by a gradual decline to 0.17±0.01% ID/g at 60 min post injection.
Uptake peaked at 2 min post injection (lung: 1.00±0.19% ID/g; heart: 0.95±0.14% ID/g), with similar kinetics until 10 min post injection. Then, the heart uptake dropped rapidly to 0.15±0.27% ID/g at 60 min post injection, whereas the lung uptake remained at a high level at 60 min post injection of 0.41±0.07% ID/g. In addition, the radiotracer was also observed entering into the brain with a stable uptake level of ˜0.2% ID/g.

The mark [6] stands for this setting: dynamic PET, 2 min post injection.
Setting [7] is: dynamic PET, 60 min post injection.
Setting [8] is: static PET, 0.5 h post injection.

Turning to `C[C@@H](NCCCc1cccc(C(F)(F)F)c1)c1ccc([18F])c2ccccc12` [[^18F]F-ZW-cinacalcet], the “In vitro stability, purity” value in data set [1] (6 h time point) is given as over 90%. Also, the “Stability in PBS, purity” value in data set [1] (PBS containing 8% EtOH, 4 h post incubation) is over 95%. Moreover, on CSR [2] (excised tissue sections), the “Parathyroid/thyroid ratio in autoradiography (Mean IntDen)” value was determined as 6.60±1.28. Also, the “Localization of radioactivity by autoradiography and pathology staining” value at CSR [2] (neighboring slides) is “correlated well with parathyroid gland”. Moreover, in data set [3] (Rhesus Macaque, overall judgement), the Blood metabolic stability entry is given as “acceptable stability for imaging applications”. Further, in data set [3] (1 h post injection), the “In vivo stability in blood” value is given as “majority of the agent remained untouched”. Moreover, the “In vivo stability in blood” value in data set [3] (1 h post injection, listed as 18F-cinacalcet) is reported as “rather stable”. The “In vivo stability in blood” value in data set [3] (3 h post injection) is reported as “hydrophilic metabolite was observed”. Besides, in data set [3] (3 h post injection, listed as 18F-cinacalcet), the “In vivo stability in blood” value is on record as “significant metabolites are observed”. Besides, the logP (as a rule, a log measure of how a compound divides between an organic and an aqueous phase) in data set [4] is 1.95 ± 0.02. For the same compound, on CSR [5] (dynamic PET), the “Brain uptake, stable level” value is about 0.2 % ID/g. At CSR [5] (setting [6]), the “Heart uptake at peak” value is given as 0.95±0.14 % ID/g and the “Lung uptake at peak” value is reported as 1.00±0.19 % ID/g. For the same compound, the Muscle uptake on CSR [5] (dynamic PET, 20 min post injection) is under 0.06 % ID/g. For the same compound, at CSR [5] (setting [7]), the Heart uptake is on record as 0.15±0.27 % ID/g, the Lung uptake is 0.41±0.07 % ID/g and the Parathyroid uptake came out at 0.17±0.01 % ID/g. In addition, the “Parathyroid uptake at peak” value at CSR [5] (dynamic PET, about 7 min post injection) was determined as 0.33±0.05 % ID/g. Further, at CSR [5] (dynamic PET, post injection), the “Time of peak lung and heart uptake” value came out at 2 min; the “Time of peak parathyroid uptake” value is given as “about 7 min”. Besides, the “PET signal in neck area” value on CSR [5] (small animal PET) is reported as “clearly demonstrated two hot spots”. In addition, on CSR [5] (setting [8]), the Parathyroid radiotracer uptake is given as 0.28±0.16 % ID/g and the Parathyroid/muscle ratio was 4.9±0.93. Moreover, at CSR [5] (static PET, 2 h time point), the Parathyroid radioactivity entry is reported as “reverted to the background level”.
